# Measured values taken from patent publication US20260216054A1, “COMPOSITIONS COMPRISING EPILOBIUM FLEISCHERI EXTRACT FOR TREATING SIGNS OF AGING” (DSM IP Assets B.V., priority 2023, published 2026).
# Tested on: 70% normal and 30% senescent human dermal fibroblasts
# Experiment: Senolytic activity study (SA-beta-galactosidase, flow cytometry)
# Format: cell-based
# Settings: 1.5 μM, 72 hours
# Protocol: Normal and senescent cell populations were obtained from normal human dermal fibroblasts. For the normal cell population, the cells were seeded in cell culture medium (Dulbecco's Modified Eagle Medium supplemented with 10% serum and 1% antibiotics) and allowed to adhere and proliferate in a humidified cell incubator maintaining 37° C. and 5% CO2. These were then passaged or collected when 90% confluent. For the senescent cell population, the normal fibroblast cells were at this stage shortly exposed to 200 μM H2O2 followed by normal cell culture medium. Several days later, the cells were treated again with H2O2 to obtain a fully senescent population. Both normal and senescent populations were mixed into a 70% normal and 30% senescent cell population and represented the treatment population. Afterward, the 70% normal and 30% senescent cell population were seeded in cell culture medium and allowed to adhere in the cell incubator. […] Afterward, senescence-associated beta-galactosidase was visualized—a well-known senescence marker—in the cells to quantify the senescence levels using flow cytometry. […] Data are normalized to the untreated control (30% senescent cells and 70% normal cells) and expressed as the mean±SD (n=4).
smiles,measurement,setting,value
CC1(C)CCC(c2ccc(Cl)cc2)=C(CN2CCN(c3ccc(C(=O)NS(=O)(=O)c4ccc(N[C@H](CCN5CCOCC5)CSc5ccccc5)c(S(=O)(=O)C(F)(F)F)c4)cc3)CC2)C1 [Navitoclax],Senescent cells (%),"70% normal/30% senescent mix, normalized to untreated control (30%), mean, n=4",10%
same,Significant senolytic effect,versus CTRL,Yes
